# Measured values as given in patent US20180206495A1, “SUBSTITUTED ARYL AND HETEROARYL CARBOXYLIC ACID HYDRAZIDES OR SALTS THEREOF AND USE THEREOF TO INCREASE STRESS TOLERANCE IN PLANTS” (BAYER CROPSCIENCE AKTIENGESELLSCHAFT, priority 2015, published 2018).
# How the values were obtained:
# Brassica napus = assay: In vivo analyses Part B: drought stress, spray application, appearance vs stressed control in categories, Brassica napus; set-up: key: 0: no positive effect; +: slight positive effect; ++: clear positive effect; +++: strong positive effect
# Description: (§1) Seeds of monocotyledonous and dicotyledonous crop plants were sown in sandy loam in plastic pots, covered with soil or sand and cultivated in a greenhouse under good growth conditions. The test plants are treated at the early leaf stage (BBCH10-BBCH13). To assure uniform water supply before commencement of stress, the potted plants were supplied with water by dam irrigation prior to substance application. The inventive compounds were first formulated as wettable powders (WP) or dissolved in a solvent mixture. The further dilution was effected with water supplemented with 0.2% wetting agent (e.g. agrotin). The finished spray liquor was sprayed onto the green parts of the plant at an equivalent water application rate of 600 l/ha. Substance application was followed immediately by stress treatment of the plants. Drought stress was induced by gradual drying out under the following conditions: “Day”: 14 hours with illumination at ˜26-30° C. “Night”: 10 hours without illumination at ˜18-20° C. The duration of the respective stress phases was guided mainly by the condition of the stressed control plants. It was ended (by re-irrigating and transfer to a greenhouse with good growth conditions) as soon as irreversible damage was observed on the stressed control plants. The end of the stress phase was followed by an about 4-7-day recovery phase, during which the plants were once again kept under good growth conditions in a greenhouse. The duration of the recovery phase was guided mainly by when the trial plants had attained a state which enabled visual scoring of potential effects, and was therefore variable. Once this juncture had been reached, the appearance of the plants treated with test substances was recorded in comparison to the stressed control plants by the following categories: • 0 no positive effect • + slight positive effect • ++ clear positive effect • +++ strong positive effect In order to rule out any influence on the effects observed by any fungicidal or insecticidal action of the test compounds, it was additionally ensured that the tests proceeded without fungal infection or insect infestation. The values reported in tables B-1 and B-2 below are mean values of the results from at least three repeats. Effects of selected compounds of the general formula (I) under drought stress according to the following tables B-1 and B-2: […]
# Triticum aestivum = assay: In vivo analyses Part B: drought stress, spray application, appearance vs stressed control in categories, Triticum aestivum; set-up: key: 0: no positive effect; +: slight positive effect; ++: clear positive effect; +++: strong positive effect
# Description: as §1
SMILES,Effect (BRSNS) (Brassica napus; dosage 250 g/ha),Effect (TRZAS) (Triticum aestivum; dosage 250 g/ha),further results
CN(C)N(Cc1c(F)cccc1F)C(=O)c1ccccc1C(F)(F)F [A1-17],,,Effect (BRSNS) (Brassica napus; dosage 25 g/ha): ++
CN(C)N(Cc1ncccn1)C(=O)c1ccccc1C(F)(F)F [A1-27],++,,
CN(C)N(Cc1cccc(C#N)c1)C(=O)c1ccccc1C(F)(F)F [A1-62],,,Effect (BRSNS) (Brassica napus; dosage 25 g/ha): ++
CN(C)N(Cc1ccc(C#N)cc1)C(=O)c1ccccc1C(F)(F)F [A1-63],+,,
CN(C)N(Cc1ccccc1C(F)(F)F)C(=O)c1ccccc1C(F)(F)F [A1-81],,+,Effect (BRSNS) (Brassica napus; dosage 25 g/ha): +
"CN(C)N(Cc1ccc(Cl)nc1)C(=O)c1ccccc1C(F)(F)F [A1-94, N-[(6-Chloropyridin-3-yl)methyl]-N′,N′-dimethyl-2-(trifluoromethyl)benzohydrazide]",,+,
CC(c1ccc(F)cc1)N(C(=O)c1ccccc1C(F)(F)F)N(C)C (stereo not shown) [A1-159],,+,
COC(=O)c1ccccc1CN(C(=O)c1ccccc1C(F)(F)F)N(C)C [A1-603],++,,
CN(C)N(Cc1cccnc1C#N)C(=O)c1ccccc1C(F)(F)F [A1-679],,+,Effect (BRSNS) (Brassica napus; dosage 25 g/ha): +
"CCN(CC)N(Cc1cccc(Cl)c1Cl)C(=O)c1ccccc1C(F)(F)F [A2-4, N-(2,3-Dichlorobenzyl)-N′,N′-diethyl-2-(trifluoromethyl)benzohydrazide]",,+,
CCN(C)N(Cc1nccc(Cl)c1Cl)C(=O)c1ccccc1C(F)(F)F [A5-40],+,+,
CCN(C)N(Cc1ccccc1C#N)C(=O)c1ccccc1C(F)(F)F [A5-61],,+,
COc1ccccc1C(=O)N(Cc1ccc(F)cc1F)N(C)C [A8-15],+,,Effect (TRZAS) (Triticum aestivum; dosage 25 g/ha): ++
COc1ccccc1C(=O)N(Cc1ncc(C(F)(F)F)cc1Cl)N(C)C [A8-36],,,Effect (TRZAS) (Triticum aestivum; dosage 25 g/ha): ++
COc1ccccc1C(=O)N(Cc1ccc(Cl)nc1)N(C)C [A8-94],,,Effect (TRZAS) (Triticum aestivum; dosage 25 g/ha): +
CN(C)N(Cc1cccc(Cl)c1)C(=O)c1ccccc1Cl [A10-2],,+,Effect (BRSNS) (Brassica napus; dosage 25 g/ha): ++
CN(C)N(Cc1c(F)cccc1F)C(=O)c1ccccc1Cl [A10-17],+,,
CN(C)N(Cc1nccc(Cl)c1Cl)C(=O)c1ccccc1Cl [A10-40],++,,
CN(C)N(Cc1ccccc1C(F)(F)F)C(=O)c1ccccc1Cl [A10-81],,+,
CN(C)N(Cc1ccc(Cl)nc1)C(=O)c1ccccc1Cl [A10-94],+,,
CN(C)N(Cc1cccnc1C#N)C(=O)c1ccccc1Cl [A10-679],++,,
CN(C)N(Cc1ncc(C(F)(F)F)cc1Cl)C(=O)c1ccc(Cl)cc1Cl [A12-36],,,Effect (BRSNS) (Brassica napus; dosage 100 g/ha): +

SMILES,Effect (BRSNS) (Brassica napus; dosage 250 g/ha),Effect (TRZAS) (Triticum aestivum; dosage 250 g/ha),further results
CN(C)N(Cc1ccc(Cl)nc1)C(=O)c1ccc(Cl)cc1Cl [A12-94],,+,Effect (BRSNS) (Brassica napus; dosage 25 g/ha): +
CN(C)N(Cc1ccc(Cl)cc1Cl)C(=O)c1ccc(F)cc1C(F)(F)F [A14-5],,,Effect (TRZAS) (Triticum aestivum; dosage 25 g/ha): +
CN(C)N(Cc1ccc(C(F)(F)F)cc1Cl)C(=O)c1ccc(F)cc1C(F)(F)F [A14-91],+,,Effect (TRZAS) (Triticum aestivum; dosage 25 g/ha): +
CN(C)N(Cc1ccc(Cl)nc1Cl)C(=O)c1ccc(F)cc1C(F)(F)F [A14-99],+,,Effect (TRZAS) (Triticum aestivum; dosage 25 g/ha): +
CN(C)N(Cc1cc(Cl)c(Cl)cc1Cl)C(=O)c1ccc(F)cc1C(F)(F)F [A14-138],,,Effect (BRSNS) (Brassica napus; dosage 25 g/ha): +; Effect (TRZAS) (Triticum aestivum; dosage 25 g/ha): +
CN(C)N(Cc1c(Cl)cc(C(F)(F)F)c(F)c1F)C(=O)c1ccc(F)cc1C(F)(F)F [A14-608],,,Effect (BRSNS) (Brassica napus; dosage 25 g/ha): +; Effect (TRZAS) (Triticum aestivum; dosage 25 g/ha): +
CN(C)N(Cc1c(Cl)c(Cl)c(C(F)(F)F)c(Cl)c1Cl)C(=O)c1ccc(F)cc1C(F)(F)F [A14-680],++,,
CN(C)N(Cc1ccccc1Cl)C(=O)c1ccccc1I [A36-1],+,,
CN(C)N(Cc1ccc(Cl)cc1Cl)C(=O)c1ccccc1I [A36-5],++,+,
CN(C)N(Cc1c(Cl)cccc1Cl)C(=O)c1ccccc1I [A36-7],,+,
CN(C)N(Cc1c(Cl)cc(Cl)cc1Cl)C(=O)c1ccccc1I [A36-10],,+,
CN(C)N(Cc1ncccn1)C(=O)c1ccccc1I [A36-27],+,,
CN(C)N(Cc1nccc(Cl)c1Cl)C(=O)c1ccccc1I [A36-40],,+,
CN(C)N(Cc1ccccc1C#N)C(=O)c1ccccc1I [A36-61],+,+,
CN(C)N(Cc1ccc(C#N)cc1)C(=O)c1ccccc1I [A36-63],,+,
CN(C)N(Cc1ccccc1C(F)(F)F)C(=O)c1ccccc1I [A36-81],,+,
CN(C1CCCCC1)N(Cc1ccccn1)C(=O)c1ccccc1C(F)(F)F [A47-21],,+,
CN(C)N(Cc1ncc(C(F)(F)F)cc1Cl)C(=O)c1ccc(C#N)cc1C(F)(F)F [A48-36],,,Effect (BRSNS) (Brassica napus; dosage 25 g/ha): ++
"Cc1ccc(C(=O)N(Cc2ncc(C(F)(F)F)cc2Cl)N(C)C)c(C(F)(F)F)c1 [A50-36, N-[3-Chloro-5-(trifluoromethyl)pyridin-2-yl-methyl]-N′,N′-dimethyl-2-(trifluoromethyl)-4-methylbenzohydrazide]",,,Effect (BRSNS) (Brassica napus; dosage 25 g/ha): +
Cc1ccc(C(=O)N(Cc2ccccc2C#N)N(C)C)c(C(F)(F)F)c1 [A50-61],,,Effect (BRSNS) (Brassica napus; dosage 25 g/ha): +
CN(C)N(Cc1ccccc1Cl)C(=O)c1ccc(Cl)cc1C(F)(F)F [A51-1],,+,
CN(C)N(Cc1ccc(Cl)cc1Cl)C(=O)c1cnccc1C(F)(F)F [B1-5],+++,,

SMILES,Effect (BRSNS) (Brassica napus; dosage 250 g/ha),Effect (TRZAS) (Triticum aestivum; dosage 250 g/ha),further results
CN(C)N(Cc1c(Cl)cc(Cl)cc1Cl)C(=O)c1cnccc1C(F)(F)F [B1-10],+++,,
CN(C)N(Cc1nccc(Cl)c1Cl)C(=O)c1cnccc1C(F)(F)F [B1-40],+,,
CN(C)N(Cc1ccccc1C#N)C(=O)c1cnccc1C(F)(F)F [B1-61],++,,
CN(C)N(Cc1ccc(C#N)cc1)C(=O)c1cnccc1C(F)(F)F [B1-63],+++,,
CN(C)N(Cc1ccc(Cl)nc1)C(=O)c1cnccc1C(F)(F)F [B1-94],,+,
CN(C)N(Cc1cccnc1C#N)C(=O)c1cnccc1C(F)(F)F [B1-679],++,,
"CCN(CC)N(Cc1ccccn1)C(=O)c1cnccc1C(F)(F)F [B2-21, N′,N′-Diethyl-N-(pyridin-2-ylmethyl)-4-(trifluoromethyl)nicotinohydrazide]",,+,
CN(C)N(Cc1ccccc1Cl)C(=O)c1ccc(C(F)(F)F)nc1 [B5-1],,+,
CN(C)N(Cc1ccccn1)C(=O)c1ccc(C(F)(F)F)nc1 [B5-21],+,,
CN(C)N(Cc1ccc(Cl)nc1)C(=O)c1ccc(C(F)(F)F)nc1 [B5-94],,,Effect (TRZAS) (Triticum aestivum; dosage 25 g/ha): +
CN(C)N(Cc1ccccc1Cl)C(=O)c1ccc(C(F)F)nc1 [B6-1],,,Effect (TRZAS) (Triticum aestivum; dosage 25 g/ha): ++
CN(C)N(Cc1ccccn1)C(=O)c1ccc(C(F)F)nc1 [B6-21],,+,
CN(C)N(Cc1ccccc1C#N)C(=O)c1ccc(C(F)F)nc1 [B6-61],,+,
CCN(C)N(Cc1nccc(Cl)c1Cl)C(=O)c1cnccc1C(F)(F)F [B17-40],,+,
CCN(C)N(Cc1ccccc1C#N)C(=O)c1cnccc1C(F)(F)F [B17-61],+,,
CN(C1CCCCC1)N(Cc1ccccc1Cl)C(=O)c1cnccc1C(F)(F)F [B18-1],,,Effect (TRZAS) (Triticum aestivum; dosage 25 g/ha): ++
CN(C1CCCCC1)N(Cc1ccccn1)C(=O)c1cnccc1C(F)(F)F [B18-21],,,Effect (TRZAS) (Triticum aestivum; dosage 25 g/ha): +
CN(C)N(Cc1ccccn1)C(=O)c1cncnc1C(F)(F)F [E1-21],,,Effect (TRZAS) (Triticum aestivum; dosage 25 g/ha): +
CN(C)N(Cc1ccc(Cl)nc1)C(=O)c1cncnc1C(F)(F)F [E1-94],,+,
CN(C)N(Cc1ccccc1C#N)C(=O)c1cncnc1C(F)(F)Cl [E3-61],,+,
